Source: patent publication EP1210336B1, “SUBSTITUTED BENZIMIDAZOLES AS NON-NUCLEOSIDE INHIBITORS OF REVERSE TRANSCRIPTASE” (THE UNITED STATES OF AMERICA, as represented by the …, priority 1999, dated 2001)
pEC50, pIC50: −log10 of the molar value. Read-outs that look alike come from different tables or passages of the source.

How the values were obtained:
[1] = system: NL4-3 (WT); experiment: Cytopathic cell killing assay, cross-resistance profile, infected MT-4 cells; type: cell-based, HIV-1; conditions: for EC50: Human immunodeficiency virus 1, NL43, MT4, Table 10 (values in µM)
Method in brief: (§1)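 Cytopathic protection format: 5 x 10^3 cells/well, HIV-1 WT or RT mutant, MOI ~0.01-0.05 (full killing by d6); triplicate half-log drug series; 37°C, 6 d; XTT read at 450 nm; uninfected drug wells for cytotoxicity.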

[2] = system: HIV-1 isolate 4xAZT/Y181C; experiment: as above; type: cell-based
Method in brief: as §1

[3] = system: HIV-1 isolate 4xAZT; experiment: as above; type: cell-based
Method in brief: as §1

[4] = system: HIV-1 variant A98G; experiment: as above; type: cell-based
Method in brief: as §1

[5] = system: HIV-1 variant K101E; experiment: as above; type: cell-based; conditions: for EC50: Human immunodeficiency virus 1, MT4, Table 10 (values in µM)
Method in brief: as §1

[6] = system: HIV-1 variant K103N; experiment: as above; type: cell-based; conditions: isolate K103N; for EC50: Human immunodeficiency virus 1, MT4, Table 10 (values in µM)
Method in brief: as §1

[7] = system: HIV-1 variant L100I; experiment: as above; type: cell-based; conditions: for EC50: Human immunodeficiency virus 1, MT4, Table 10 (values in µM)
Method in brief: as §1

[8] = system: HIV-1 variant L74V; experiment: as above; type: cell-based
Method in brief: as §1

[9] = system: HIV-1 variant V106A; experiment: as above; type: cell-based
Method in brief: as §1

[10] = system: HIV-1 variant V108I; experiment: as above; type: cell-based; conditions: for EC50: Human immunodeficiency virus 1, MT4, Table 10 (values in µM), isolate V108l
Method in brief: as §1

[11] = system: HIV-1 variant V179D; experiment: as above; type: cell-based
Method in brief: as §1

[12] = system: HIV-1 variant Y181C; experiment: as above; type: cell-based
Method in brief: as §1

[13] = system: HIV-1 variant Y188C; experiment: as above; type: cell-based
Method in brief: as §1

[14] = system: HIV-1 isolate 4xAZT/L100I; experiment: as above; type: cell-based
Procedure: The various HIV isolates tested in the Figures are those corresponding to wild-type virus (NL4-3) and the other strains listed by their RT mutations. The three 4xAZT isolates included in the Figures represent AZT drug-resistant variants. […]
Briefly, in this method cells (e.g., the CEM-SS cell line, available from the NIAID AIDS Research and Reference Program [ARRRP]) were seeded at a density of 5 x 10^3 cells/well, into the wells of a 96-well microtiter plate. The cells were then infected with HIV virus (either mutant or WT), at a multiplicity of infection (MOI) previously determined to provide complete cell killing by 6 days of culture post-infection (e.g., MOI of 0.01-0.05). Each of the HIV isolates was pre-titered to induce equivalent levels of infection based on cell killing or virus production, prior to their use in these assays. A range of test compound concentrations was added to the wells in triplicate (e.g., serial half-log dilutions) to evaluate inhibition of HIV infection. Controls for each assay included drug controls (drug colorimetric control wells), drug cytotoxicity control wells (cells with drug), virus control wells (cells with virus), and cell viability controls (cells only). Positive control drugs (e.g., AZT and ddC) were also run in parallel.
After six days of incubation at 37°C, cell viability was determined spectrophotometrically at 450 nm for each well, using the metabolic reduction of XTT to a soluble colored formazan. (See, Gartner and Popovic, "Virus Isolation and Production, in Aldovini and Walker (eds.), Techniques in HIV Research, Stockton Press, NY, pp. […] [1991]; and Nara and Fischinger, "Quantitative Infectivity Assay for HIV-1 and HIV-2," Nature 332:469-470 [1988]).
The in vitro therapeutic index (TI50) was defined as the fold-difference between the EC50 and IC50.

[15] = molecular target: T1, HIV-1 WT RT (Human immunodeficiency virus type 1 group M subtype B, UniProt P03366); conditions: reported by Pauwels et al. (TIBO) and Buckheit et al. (thiazolobenzimidazole); read-out: IC50 for rC:dG; cited from earlier work
T1 construct: purified RT protein (0.015 mg/mL) was incubated in a 100 µL reaction mixture

[16] = molecular target: T1, HIV-1 WT RT; experiment: biochemical
[17] = system: WT virus (NL4-3); experiment: microbe, parasite or virus in culture; type: cell-based, HIV-1; conditions: Human immunodeficiency virus 1, NL43, CEM-SS
Method in brief: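 CEM-SS cells (5 x 10^3/well) infected with HIV-1 at an MOI giving complete killing by day 6 (e.g., 0.01-0.05), with serial half-log compound dilutions in triplicate. After 6 days at 37°C, viability read by XTT reduction at 450 nm. CIC50 derived from protection against cytopathic killing.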

[18] = system: HIV-1 variant M184l; experiment: Cytopathic cell killing assay, cross-resistance profile, infected MT-4 cells; type: cell-based; conditions: Human immunodeficiency virus 1, MT4
Method in brief: as §1

[19] = system: HIV-1 variant Y188H; experiment: as above; type: cell-based; conditions: Human immunodeficiency virus 1, MT4
Method in brief: as §1

[20] = Human immunodeficiency virus 1, MT4

CC1Cn2c(=O)[nH]c3cccc(c32)CN1 (stereo not drawn) [TIBO, 4,5,6,7-tetrahydro-5-methylimidazo[4,5,1-jk][1,4]benzodiazepin-2(1H)-one, reference compound]
pEC50 ([1]; Human immunodeficiency virus 1, NL43, MT4, Table 4, isolate NL4-3 (WT)): 6.52
pEC50 ([1]; Human immunodeficiency virus 1, NL43, MT4, Table 9, isolate NL4.3): 6.52
EC50 ([1]; isolate NL4-3 (WT)): 0.3 µM
pEC50 ([2]; Human immunodeficiency virus 1, MT4, Table 4, isolate 4xAZT/Y181C): 5.70
pEC50 ([2]; Human immunodeficiency virus 1, MT4, Table 9, isolate 4XAZT /Y181C): 5.70
pEC50 ([3]; Human immunodeficiency virus 1, MT4, Table 4, isolate 4xAZT): 6.52
pEC50 ([3]; Human immunodeficiency virus 1, MT4, Table 9, isolate 4XAZT): 6.52
pEC50 ([4]; Human immunodeficiency virus 1, MT4, Table 4, isolate A98G): 4.96
pEC50 ([4]; Human immunodeficiency virus 1, MT4, Table 9, isolate A98G): 4.96
pEC50 ([5]; Human immunodeficiency virus 1, MT4, Table 4, isolate K101E): 4.76
pEC50 ([5]; Human immunodeficiency virus 1, MT4, Table 9, isolate KIOIE): < 5.00
EC50 ([5]; isolate K101E): 17.4 µM
pEC50 ([6]; Human immunodeficiency virus 1, MT4, Table 4): 4.76
pEC50 ([6]; Human immunodeficiency virus 1, MT4, Table 9): < 5.00
EC50 [6]: 17.4 µM
pEC50 ([7]; Human immunodeficiency virus 1, MT4, Table 4, isolate L1001): 4.76
pEC50 ([7]; Human immunodeficiency virus 1, MT4, Table 9, isolate L1001): < 5.00
EC50 ([7]; isolate L1001): 17.4 µM
pEC50 ([8]; Human immunodeficiency virus 1, MT4, Table 4, isolate L74V): 6.70
pEC50 ([8]; Human immunodeficiency virus 1, MT4, Table 9, isolate 1.74 V): 6.70
pEC50 ([9]; Human immunodeficiency virus 1, MT4, Table 4, isolate V106A): 4.90
pEC50 ([9]; Human immunodeficiency virus 1, MT4, Table 9, isolate V106A): < 5.00
pEC50 ([10]; Human immunodeficiency virus 1, MT4, Table 4, isolate V108I): 5.62
pEC50 ([10]; Human immunodeficiency virus 1, MT4, Table 9, isolate V1081): 5.62
EC50 [10]: 2.4 µM
pEC50 ([11]; Human immunodeficiency virus 1, MT4, Table 4, isolate V179D): 5.21
pEC50 ([11]; Human immunodeficiency virus 1, MT4, Table 9, isolate V179D): 5.21
pEC50 ([12]; Human immunodeficiency virus 1, MT4, Table 4, isolate Y181C): 5.38
pEC50 ([12]; Human immunodeficiency virus 1, MT4, Table 9, isolate Y181C): 5.38
EC50 ([12]; Human immunodeficiency virus 1, MT4, Table 10 (values in µM), isolate Y181C): 4.2 µM
pEC50 ([13]; Human immunodeficiency virus 1, MT4, Table 4, isolate Y188C): < 4.76
pEC50 ([13]; Human immunodeficiency virus 1, MT4, Table 9, isolate Y188C): < 4.70
EC50 ([13]; Human immunodeficiency virus 1, MT4, Table 10 (values in µM), isolate Y188C): > 17.4 µM
pEC50 ([14]; Human immunodeficiency virus 1, MT4, Table 4, isolate 4xAZT/L.1001): < 4.76
pEC50 ([14]; Human immunodeficiency virus 1, MT4, Table 9, isolate 4XAZT /L1001): < 4.70
pIC50 [15]: 7.22

CCc1cccc2c1nc(-c1c(F)cccc1F)n2Cc1c(F)cccc1F [compound 47, 1-(2,6-difluorobenzyl)-2-(2,6-difluorophenyl)-4-ethylbenzimidazole]
pIC50 [16]: 4.76
inhibition at 1 µM ([16]; read-out: %inhibn (1µM)): 50%
pEC50 [17]: 6.09
pEC50 ([1]; Human immunodeficiency virus 1, NL43, MT4, Table 8, isolate N1.43): 5.96
EC50 ([1]; isolate NL4-3 (WT)): 0.9 µM
pEC50 [2, 20]: < 4.70
pEC50 [3, 20]: 6.00
pEC50 [4, 20]: 5.10
pEC50 ([5]; Human immunodeficiency virus 1, MT4, Table 8, isolate K101E): < 4.70
EC50 ([5]; isolate K101E): > 50 µM
pEC50 ([6]; Human immunodeficiency virus 1, MT4, Table 8): < 4.70
EC50 [6]: > 50 µM
pEC50 ([7]; Human immunodeficiency virus 1, MT4, Table 8, isolate 1.1001): 6.22
EC50 ([7]; isolate L1001): 2.48 µM
pEC50 [8, 20]: 5.82
pEC50 [18]: 6.02
pEC50 [9, 20]: < 4.70
pEC50 ([10]; Human immunodeficiency virus 1, MT4, Table 8, isolate V1081): 5.52
EC50 [10]: > 50 µM
pEC50 [11, 20]: 5.74
pEC50 [12, 20]: 5.14
pEC50 [13, 20]: 5.26
pEC50 [19]: 4.88
pEC50 [14, 20]: 6.22
